This note sets out measurements from publication PMC5283653, “Structural aspects of nucleotide ligand binding by a bacterial 2H phosphoesterase” (PLoS ONE, 2017).

Read-outs that look alike come from different tables or passages of the source.

For test [1], the target named is T1, LigT (Escherichia coli, UniProt Z9E1N8ZL79).
T1 construct: N-terminal His6 tag with TEV site, tag cut with TEV protease; expressed in E. coli BL21(DE3); 20 kDa; monomer in solution
As to the kind of experiment: turnover to […]′-AMP seen in crystal. The format is biochemical. The following applies: 0.1 M Tris-HCl pH 7.4-7.5, 0.2 M MgCl2, PEG 8000; 5 mM ligand.

For test [2], the target named is T1, LigT. As to the kind of experiment: isothermal titration calorimetry; co-crystal structure. To be noted: 10 mM HEPES pH 7.5, 0.2 M NaCl, 0.1 mM TCEP, 25 °C, active site, read-out: dissociation constant. The format is binding. (In general: Isothermal titration calorimetry measures the heat released or taken up as one component is titrated into another.)

On to `Nc1ncnc2c1ncn2[C@@H]1O[C@H](CO)[C@H]2OP(=O)(O)O[C@H]21` [2′,3′-cAMP], for which, at LigT [1], the “turnover to 2′-AMP seen in crystal” value is “the reaction product is bound in the crystals grown in the presence of the substrate”. Consider `Nc1ncnc2c1ncn2[C@@H]1O[C@H](CO)[C@@H](O)[C@H]1OP(=O)(O)O` [2′-AMP], for which, at LigT [2] (crystal grown with 2′,3′-cAMP), the Kd was 140 µM.

With `Nc1ncnc2c1ncn2[C@@H]1O[C@H](CO)[C@@H](OP(=O)(O)O)[C@H]1O` [3′-AMP], the Kd at LigT [2] came out at 180 µM. `Nc1ncnc2c1ncn2[C@@H]1O[C@H](COP(=O)(O)OP(=O)(O)OP(=O)(O)O)[C@@H](O)[C@H]1O` [ATP]: on LigT [2] (second crystal form 5LDP), the Kd worked out at 70 µM. On to `NC(=O)c1ccc[n+]([C@@H]2O[C@H](COP(=O)(O)OP(=O)(O)OC[C@H]3O[C@@H](n4cnc5c(N)ncnc54)[C@H](OP(=O)(O)O)[C@@H]3O)[C@@H](O)[C@H]2O)c1` [NADP^+], for which the Kd on LigT [2] (product analogue) turned out to be 40 µM.
